# Patent US8541002B2, “Vaccine for treatment and prevention of herpes simplex virus infection” (Agenus Inc., priority 2003, dated 2013)
# Where no end group is shown, it is not given here.
# Assay: Turbidity assay for solubility of the peptides
# Format: physicochemical
# Conditions: solubility of the antigenic peptides in water or Dimethyl Sulfoxide (DMSO)
# How it was run: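 Solubility judged by turbidity: absorbance read between 340 and 360 nm (every 2 nm by spectrophotometer, duplicate; every 4 nm by plate reader, triplicate) and averaged.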
molecule,measurement,value
CC(C)C[C@H](NC(=O)[C@@H]1CCCN1C(=O)[C@@H](NC(=O)[C@H](CO)NC(=O)[C@H](C)NC(=O)[C@H](CO)NC(=O)[C@H](CO)NC(=O)[C@H](CCCNC(=N)N)NC(=O)[C@@H](NC(=O)[C@H](CO)NC(=O)[C@@H](N)CC(=O)O)C(C)C)C(C)C)C(=O)N[C@@H](Cc1ccc(O)cc1)C(=O)N1CCC[C@H]1C(=O)N[C@@H](C)C(=O)N[C@@H](C)C(=O)N[C@@H](CO)C(=O)N1CCC[C@H]1C(=O)N[C@H](C(=O)N1CCC[C@H]1C(=O)N[C@@H](C)C(=O)N[C@@H](CCC(=O)O)C(=O)N[C@@H](C)C(=O)N[C@@H](Cc1ccc(O)cc1)C(=O)N[C@@H](Cc1ccc(O)cc1)C(=O)N[C@@H](CO)C(=O)N[C@@H](CCC(=O)O)C(=O)N[C@@H](CO)C(=O)N[C@@H](CCC(=O)O)C(=O)N[C@@H](CC(=O)O)C(=O)N[C@@H](CCC(=O)O)C(=O)N[C@@H](C)C(=O)N[C@@H](C)C(=O)N[C@@H](CC(N)=O)C(=O)N[C@@H](CC(=O)O)C(=O)N[C@@H](Cc1ccccc1)C(=O)O)C(C)C [US09-2],Solubility,water
AAGKRGDSGLLRVCAALSIPKPSEAVRPSRIPRAP [US11-2],Solubility,water
AGLPSPVPYAPLGSPDPSSPRQRTYVLPRVGIHNA [US10-1],Solubility,water
ARLRLEARLGHLVAAILEREQSLVAHALGYQLAFV [UL22-4],Solubility,water
ASSQSKPLATQPPVLALSNAPPRRVSPTRGRRRHT [UL01-3],Solubility,water
ATYLLNYAGRIVSSVFLQYPYTKITRLLCELSVQR [UL53-1],Solubility,DMSO
DEAFPIEYVLRLMNDWADVPCNPYLRVQNTGVSVL [UL34-1],Solubility,DMSO
DEVAPDHEAELYARVQRPGPVPDAEPIYDTVEGYA [UL10-5],Solubility,water
DRPPESPGSELYPLNAQALAHLQMLPADHRAFFRT [US10-2],Solubility,water
DRPSAYGTWVRVRVFRPPSLTIHPHAVLEGQPFKA [UL44-4],Solubility,water
GPGASPRLYSVVGPLGRQRLIIEELTLETQGMYYW [UL44-1],Solubility,water
ILSPGALAAIENYVRFSADRLLGLIHMQPLYSAPA [UL40-2],Solubility,water
IVGILGCAAVGAAPTGPASDTTNATARLPTHPPLI [US05-2],Solubility,water
LEVIFPTTDAKLNYLSRTQRLASLLTYAGPIKAPD [UL33-1],Solubility,water
LSGIAVRLCYIAVVAGVVLVALRYEQEIQRRLFDL [UL53-2],Solubility,DMSO
PATLIPRAAAKHLAALTRVQAERSSGYWWVNGDGI [UL45-1],Solubility,water
PQPPLPQPPLPQPPLPQPPLPPVTRTLTPQSRDSV [UL36-3],Solubility,water
RAYLVNPFLFAAGFLEDLSHSVFPADTQETTTRRA [UL01-1],Solubility,water
RTLAVRGDASLCQLLFGHPVDAVILRQATRRPRIT [UL16-2],Solubility,water
SRLPPHTQPVFSKRVVMFAWSFLVLKPLELVAAGM [UL20-1],Solubility,water
SSDVPSVALLLFPNGTVIHLLAFDTLPIATIAPGF [UL22-3],Solubility,DMSO
TQDTACVHGELLARKRERFAAVINRFLDLHQILRG [UL33-2],Solubility,water
VAPACIIAAVLAYYVTWLARALLLYVNIKRDRLPL [UL20-2],Solubility,DMSO
VHSRVYNIIQLVLFHNNDQARRAYVARTINHPAIR [UL40-3],Solubility,water
VNSAETNTHGLAYDVPEGIRRHLRNPKIRRAFTEQ [UL13-2],Solubility,water
VSIIALTELYFILRRGSAPKNAEPAAPRGRSKGWS [UL53-3],Solubility,water
VSPAHPQTPVGAGSRDLSLKGTPSDGMQPRGADTL [US11-1],Solubility,water
VTTAEFPRDPGQLLYIPKTYLLGRPRNASLPELPE [UL22-1],Solubility,water
